Experimental data published in US20060292099A1, “Treatment of eye disorders with sirtuin modulators” (priority 2005, published 2006).
Several values for one entry are separate records, joined by “and”; a condition that tells them apart may be missing. Identical values can stand only once. Like-named read-outs stand apart in the source and are kept apart here.

Key:
retinal ganglion cells = conditions: animals, recent study (glaucoma background); cited from earlier work
[1] = system: retinal ganglion cells (RGCs)
Experimental: (§1) Study outline: The neuroprotective effects of nicotinamide riboside were examined in EAE mice with optic neuritis. […] To induce EAE, mice were immunized several days later with 300 μg PLP emulsified in complete Freund's adjuvant (CFA), and control mice (without EAE) were mock-immunized with phosphate buffered saline (PBS) in CFA. All mice received 200 ng intraperitoneal pertussis toxin (PT) on the day of immunization (day 0) and again on day 2.
(§2) Eyes were treated with nicotinamide riboside by intravitreal (ivt) injections with a volume of 0.8 μl/injection of a stock solution of either 0.1 M or 0.4 M nicotinamide riboside in PBS (Groups 2, 4 and 5). […] Treament with nicotinamide riboside, as well as PBS control injections, were given ivt on days 0, 4, 7 and 11. Mice were scored daily for clinical EAE, and were sacrificed on day 14 by overdose with ketamine and xylazine.
(§3) Retinas were dissected and whole-mounted for fluorescent microscopy. RGC numbers were quantified by counting FG-labeled cells in 12 standardized fields in each retina. Optic nerves were dissected and processed for histology. Cut sections stained by H & E were evaluated for the presence of inflammatory cells to determine acute optic neuritis. RGCs were compared between PBS-treated and nicotinamide riboside-treated eyes with optic neuritis to determine whether nicotinamide riboside prevents loss of neurons.

[2] = system: EAE mice with optic neuritis; test: Incidence of optic neuritis (inflammatory cell infiltration of optic nerve) and clinical EAE, nicotinamide riboside; type: in vivo, SJL/J mice
Experimental: as §1, §2, §3

[3] = system: EAE mice with optic neuritis; test: Clinical EAE score and incidence of optic neuritis, resveratrol intravitreal; type: in vivo, SJL/J mice; conditions: for Peak EAE Score For Individual Mice: five point scale
Description: (§4) The experimental design is diagrammed in FIG. 21.
Mice were scored daily for clinical EAE on a five point scale: no disease=0; partial tail paralysis=0.5; tail paralysis or waddling gait=1.0; partial tail paralysis and waddling gait=1.5; tail paralysis and waddling gait=2.0; partial limb paralysis=2.5; paralysis of one limb=3.0; paralysis of one limb and partial paralysis of another=3.5; paralysis of two limbs=4.0; moribund state=4.5; death=5.0.
(§5) Retinas were diessected and whole-mounted for fluorescent microscopy. […] Optic nerves were dissected and processed for histology. […] RGCs were compared between PBS-treated and resveratrol-treated eyes with optic neuritis to determine whether resveratrol prevents loss of neurons.

[4] = Measured resveratrol concentration in Captisol solutions and reconstitution of lyophilized product; type: physicochemical
Experimental: Lyophilized vials containing 10% Captisol control vehicle were also manufactured. […] Lyophilized vials containing 40% Captisol control vehicle were also manufactured.
The filtered solutions were dispensed into vials (1.0 mL solution into 3 mL vial, Wheaton #223684), and lyophilized. At the end of the lyophilization cycle, the vials were sealed under vacuum and a cap crimped over the septa.
The lyophilized resveratrol product was an off-white cake. The material reconstituted in ˜20 seconds after the addition of 1.0 mL water. […] The lyophilized control vehicle product was a white cake. The material reconstituted in ˜20 seconds after the addition of 1.0 mL water. The reconstituted control vehicle was clear, with no visible particulates, and having a pH of 5.82.
The solution was stirred for 35 minutes, followed by sonication for 1 hour. The solution was stirred for an additional 50 minutes, followed by sonication for an additional hour. At this point, solid material was still present in the sample. An aliquot was removed for analysis. […] Because the solution appeared cloudy at this time, three portions were separated to try alternate mixing methods. Approximately 200 mL was transferred to a 500 mL volumetric flask and was sonicated for 45 min, approximately 300 mL was vigorously mixed with an overhead mixer for 90 minutes, and approximately 100 mL was homogenized for 25 minutes. None of the three portions appeared clear. […] The portions were combined and were stirred at ambient temperature overnight protected from light. The following morning, using an aseptic technique in the laminar flow hood, the solution was sterile filtered via a Nalgene 90 mm filter unit (Cat# 167-0020; […]).

[5] = system: retinal ganglion cells (RGCs); test: Retinal ganglion cell (RGC) counts in EAE optic neuritis model, resveratrol intravitreal; type: in vivo, SJL/J mice; conditions: for RGC numbers: EAE eyes with optic neuritis, 0.8 μl intravitreal days 0, 3, 7, 11, day 14
Experimental: as §4
Three test doses were diluted:
as §5

[6] = optic nerve, acute optic neuritis in EAE

N=C(N)NN [aminoguanidine]
loss of retinal ganglion cells (retinal ganglion cells): reduction in the loss of retinal ganglion cells

NC(=O)c1ccc[n+]([C@@H]2O[C@H](CO)[C@@H](O)[C@H]2O)c1 [nicotinamide riboside]
Toxicity to RGCs ([1]; mouse, in vivo): not toxic | RGC numbers vs control eyes ([1]; non-EAE eyes treated with nicotinamide riboside (Group 2) vs control eyes (Group 1)): no difference | Incidence of optic neuritis and clinical EAE vs controls ([2]; nicotinamide riboside treated mice vs controls): did not differ | Inflammatory cell infiltration [2, 6]: does not prevent

Oc1ccc(/C=C/c2cc(O)cc(O)c2)cc1 [resveratrol, 3,5,4′-Trihydroxy-trans-stilbene]
Peak EAE Score For Individual Mice ([3]; Control (non-EAE) mice, 38 μM resveratrol intravitreal): 0 | Peak EAE Score For Individual Mice ([3]; Control (non-EAE) mice, 600 μM resveratrol intravitreal): 0 | Peak EAE Score For Individual Mice ([3]; EAE mice, 38 μM resveratrol intravitreal): 1.5 and 3 (2×) and 0 and 5 and 2.5 and 1 (2×) | Peak EAE Score For Individual Mice ([3]; EAE mice, 77 μM resveratrol intravitreal): 2 (4×) and 2.5 (3×) and 0 and 3.5 and 5 and 1.5 | Peak EAE Score For Individual Mice ([3]; EAE mice, 600 μM resveratrol intravitreal): 2.5 and 2 (2×) and 5 and 4.5 and 1.5 and 0.5 | Inflammatory cell infiltration [3, 6]: does not prevent | Incidence of optic neuritis and clinical EAE vs controls ([3]; resveratrol treated mice vs controls): did not differ | concentration of resveratrol in solution ([4]; 10% Captisol lyophilisate reconstituted with 1.0 mL water, pH 5.91): 14400 µM | concentration of resveratrol in solution ([4]; 10% Captisol, after 0.20 μm filtration, pH 4.83): 14900 µM | concentration of resveratrol in solution ([4]; 10% Captisol, mixed 1 hour at ambient temperature, initial solution, pH 5.02 (target 20 mM)): 15400 µM | concentration of resveratrol in solution (HPLC) ([4]; 40% Captisol, after stirring and sonication, solid still present, pH 4.76 (target 175 mM)): 55000 µM | concentration of resveratrol in solution ([4]; 40% Captisol, portion homogenized for 25 minutes): 74000 µM | concentration of resveratrol in solution ([4]; 40% Captisol, stirred overnight at ambient temperature, sterile filtered): 168000 µM | RGC numbers ([5]; 38 μM resveratrol): 452±136 RGCs | RGC numbers ([5]; 77 μM resveratrol): 585±198 RGCs | RGC numbers ([5]; 600 μM resveratrol): 644±148 RGCs | Toxicity to RGCs ([5]; mouse, in vivo): not toxic | RGC numbers vs control eyes ([5]; non-EAE eyes treated with resveratrol vs control eyes): no difference
